Structures are written as SMILES. In brackets after ≈: the same amount, converted by molar mass.

Holding throughout (format): functional
One assay relates to Saccharomyces cerevisiae. Nature of the assay: Antimicrobial activity against Saccharomyces cerevisiae IFO 203 after 48 hrs by agar dilution method. The settings on record: IFO 203, 48 h. (In general: Agar dilution tests growth on a series of plates holding different concentrations.)
In the next assay the test system is Wickerhamomyces anomalus. Nature of the assay: Antimicrobial activity against Hansenula anomala HUT 7083 after 48 hrs by agar dilution method.
In another assay the test system is Candida albicans. Put plainly: Antimicrobial activity against Candida albicans TIMM 0134 after 48 hrs by agar dilution method.
Another assay relates to Yamadazyma nakazawae. Nature of the assay: Antimicrobial activity against Pichia nakazawae HUT 1688 after 48 hrs by agar dilution method.
The test system of another assay is Hanseniaspora uvarum. Put plainly: Antimicrobial activity against Kloeckera apiculata IFO 154 after 48 hrs by agar dilution method. Conditions: IFO 154, 48 h.
Another assay deals with Debaryomyces hansenii. Put plainly: Antimicrobial activity against Debaryomyces hansenii IFO 18 after 48 hrs by agar dilution method. The settings on record: IFO 18, 48 h.

A word on the MIC: it is the smallest concentration in the dilution series that meets the test's criterion for growth inhibition. With `CC1CC[C@@]2(OC1)O[C@H]1C[C@H]3[C@@H]4CC[C@@H]5C[C@@H](O[C@@H]6O[C@H](CO)[C@H](O)[C@H](O[C@@H]7OC[C@@H](O)[C@H](O)[C@H]7O)[C@H]6O[C@@H]6O[C@H](CO)[C@@H](O)[C@H](O)[C@H]6O)[C@@H](O)C[C@]5(C)[C@H]4CC[C@]3(C)[C@H]1[C@@H]2C` (some centres undefined), the MIC in the assay with Saccharomyces cerevisiae is 100 µg/mL (≈ 112 µM); against Wickerhamomyces anomalus, more than 100 µg/mL; with Candida albicans, more than 100 µg/mL; in the assay on Yamadazyma nakazawae, more than 100 µg/mL; in the assay on Hanseniaspora uvarum, more than 100 µg/mL; with Debaryomyces hansenii, 100 µg/mL (≈ 112 µM).
Take `C[C@H]1CC[C@@]2(OC1)O[C@H]1C[C@H]3[C@@H]4CC[C@@H]5C[C@@H](O[C@@H]6O[C@H](CO)[C@@H](O)[C@H](O[C@@H]7O[C@H](CO)[C@@H](O)[C@H](O)[C@H]7O)[C@H]6O[C@@H]6O[C@H](CO)[C@@H](O)[C@H](O)[C@H]6O)CC[C@]5(C)[C@H]4CC[C@]3(C)[C@H]1[C@@H]2C`: the minimum inhibitory concentration (MIC) in the assay with Saccharomyces cerevisiae was 6.25 µg/mL (≈ 6.92 µM); against Wickerhamomyces anomalus it was 1.56 µg/mL (≈ 1.73 µM); in the assay on Candida albicans, more than 100 µg/mL; against Yamadazyma nakazawae, 3.13 µg/mL (≈ 3.47 µM); against Hanseniaspora uvarum it was more than 100 µg/mL; in the assay with Debaryomyces hansenii, 6.25 µg/mL (≈ 6.92 µM).
Regarding `C[C@H]1CC[C@@]2(OC1)O[C@H]1C[C@H]3[C@@H]4CC[C@@H]5C[C@@H](O[C@@H]6O[C@H](CO)[C@H](O)[C@H](O[C@@H]7O[C@H](CO)[C@@H](O)[C@H](O)[C@H]7O)[C@H]6O[C@@H]6O[C@H](CO)[C@@H](O)[C@H](O)[C@H]6O)CC[C@]5(C)[C@H]4CC[C@]3(C)[C@H]1[C@@H]2C`, the minimum inhibitory concentration (MIC) worked out at 12.5 µg/mL (≈ 13.8 µM) against Saccharomyces cerevisiae; 3.13 µg/mL (≈ 3.47 µM) in the assay on Wickerhamomyces anomalus; 25 µg/mL (≈ 27.7 µM) against Candida albicans; 6.25 µg/mL (≈ 6.92 µM) in the assay on Yamadazyma nakazawae; 50 µg/mL (≈ 55.4 µM) against Hanseniaspora uvarum; 6.25 µg/mL (≈ 6.92 µM) in the assay with Debaryomyces hansenii.
With `C=C1CC[C@@]2(OC1)O[C@H]1C[C@H]3[C@@H]4CC[C@@H]5C[C@@H](O[C@@H]6O[C@H](CO)[C@@H](O)[C@H](O[C@@H]7O[C@H](CO)[C@@H](O)[C@H](O)[C@H]7O)[C@H]6O[C@@H]6O[C@H](CO)[C@@H](O)[C@H](O)[C@H]6O)CC[C@]5(C)[C@H]4CC[C@]3(C)[C@H]1[C@@H]2C`, the MIC against Saccharomyces cerevisiae was 12.5 µg/mL (≈ 13.9 µM); with Wickerhamomyces anomalus, 6.13 µg/mL (≈ 6.8 µM); in the assay with Candida albicans it was 12.5 µg/mL (≈ 13.9 µM); in the assay with Yamadazyma nakazawae, 3.13 µg/mL (≈ 3.47 µM); with Hanseniaspora uvarum, more than 100 µg/mL; in the assay with Debaryomyces hansenii, more than 100 µg/mL.
`C=C1CC[C@@]2(OC1)O[C@H]1C[C@H]3[C@@H]4CC[C@@H]5C[C@@H](O[C@@H]6O[C@H](CO)[C@H](O)[C@H](O[C@@H]7OC[C@@H](O)[C@H](O)[C@H]7O)[C@H]6O[C@@H]6O[C@H](CO)[C@@H](O)[C@H](O)[C@H]6O)CC[C@]5(C)[C@H]4CC[C@]3(C)[C@H]1[C@@H]2C`: the minimum inhibitory concentration (MIC) in the assay with Saccharomyces cerevisiae was 12.5 µg/mL (≈ 14.4 µM); with Wickerhamomyces anomalus, 3.13 µg/mL (≈ 3.59 µM); against Candida albicans, 12.5 µg/mL (≈ 14.4 µM); with Yamadazyma nakazawae, 3.13 µg/mL (≈ 3.59 µM); with Hanseniaspora uvarum, more than 100 µg/mL; against Debaryomyces hansenii, more than 100 µg/mL.
Take `C=C1CC[C@@]2(OC1)O[C@H]1C[C@H]3[C@@H]4CC[C@@H]5C[C@@H](O[C@@H]6O[C@H](CO)[C@@H](O)[C@H](O[C@@H]7OC[C@@H](O)[C@H](O)[C@H]7O)[C@H]6O[C@@H]6O[C@H](CO)[C@@H](O)[C@H](O)[C@H]6O)CC[C@]5(C)[C@H]4CC(=O)[C@]3(C)[C@H]1[C@@H]2C`: the minimum inhibitory concentration (MIC) with Saccharomyces cerevisiae, against Wickerhamomyces anomalus, with Candida albicans, against Yamadazyma nakazawae, in the assay on Hanseniaspora uvarum and against Debaryomyces hansenii was more than 100 µg/mL in each case.
For `C=C1CC[C@@]2(OC1)O[C@H]1C[C@H]3[C@@H]4CC[C@@H]5C[C@@H](O[C@@H]6O[C@H](CO)[C@H](O)[C@H](O)[C@H]6O[C@@H]6O[C@H](CO)[C@@H](O)[C@H](O)[C@H]6O)[C@@H](O)C[C@]5(C)[C@H]4CC[C@]3(C)[C@H]1[C@@H]2C`, the MIC in the assay on Saccharomyces cerevisiae, in the assay on Wickerhamomyces anomalus, against Candida albicans, against Yamadazyma nakazawae, against Hanseniaspora uvarum and with Debaryomyces hansenii was more than 100 µg/mL each time.
Consider `C=C1CC[C@@]2(OC1)O[C@H]1C[C@H]3[C@@H]4CC[C@@H]5C[C@@H](O[C@@H]6O[C@H](CO)[C@H](O)[C@H](O[C@@H]7OC[C@@H](O)[C@H](O)[C@H]7O)[C@H]6O[C@@H]6O[C@H](CO)[C@@H](O)[C@H](O)[C@H]6O)[C@@H](O)C[C@]5(C)[C@H]4CC[C@]3(C)[C@H]1[C@@H]2C`, for which the minimal inhibitory concentration (MIC) in the assay on Saccharomyces cerevisiae is 100 µg/mL (≈ 113 µM); in the assay with Wickerhamomyces anomalus, more than 100 µg/mL; in the assay with Candida albicans, 100 µg/mL (≈ 113 µM); against Yamadazyma nakazawae, 100 µg/mL (≈ 113 µM); in the assay with Hanseniaspora uvarum it was more than 100 µg/mL; against Debaryomyces hansenii, more than 100 µg/mL.
With `C=C1CC[C@@]2(OC1)O[C@H]1C[C@H]3[C@@H]4CC[C@@H]5C[C@@H](O[C@@H]6O[C@H](CO)[C@@H](O)[C@H](O[C@@H]7OC[C@@H](O)[C@H](O)[C@H]7O)[C@H]6O[C@@H]6O[C@H](CO)[C@@H](O)[C@H](O)[C@H]6O)CC[C@]5(C)[C@H]4CC[C@]3(C)[C@H]1[C@@H]2C`, the minimal inhibitory concentration (MIC) is 3.13 µg/mL (≈ 3.59 µM) in the assay on Saccharomyces cerevisiae; 3.13 µg/mL (≈ 3.59 µM) against Wickerhamomyces anomalus; 6.25 µg/mL (≈ 7.18 µM) against Candida albicans; 3.13 µg/mL (≈ 3.59 µM) against Yamadazyma nakazawae; 12.5 µg/mL (≈ 14.4 µM) in the assay with Hanseniaspora uvarum; 6.25 µg/mL (≈ 7.18 µM) against Debaryomyces hansenii.
As for `C[C@H]1CC[C@@]2(OC1)O[C@H]1C[C@H]3[C@@H]4CC[C@@H]5C[C@@H](O[C@@H]6O[C@H](CO)[C@@H](O)[C@H](O)[C@H]6O[C@@H]6O[C@H](CO)[C@@H](O)[C@H](O)[C@H]6O)CC[C@]5(C)[C@H]4CC[C@]3(C)[C@H]1[C@@H]2C`, the minimal inhibitory concentration (MIC) with Saccharomyces cerevisiae is 12.5 µg/mL (≈ 16.9 µM); in the assay on Wickerhamomyces anomalus, 6.25 µg/mL (≈ 8.44 µM); against Candida albicans, 12.5 µg/mL (≈ 16.9 µM); in the assay on Yamadazyma nakazawae, 3.13 µg/mL (≈ 4.22 µM); against Hanseniaspora uvarum, more than 100 µg/mL; against Debaryomyces hansenii, more than 100 µg/mL.
For `C[C@H]1CC[C@@]2(OC1)O[C@H]1C[C@H]3[C@@H]4CC[C@@H]5C[C@@H](O[C@@H]6O[C@H](CO)[C@H](O)[C@H](O)[C@H]6O[C@@H]6O[C@H](CO)[C@@H](O)[C@H](O)[C@H]6O)[C@@H](O)C[C@]5(C)[C@H]4CC[C@]3(C)[C@H]1[C@@H]2C`, the MIC with Saccharomyces cerevisiae was more than 100 µg/mL; against Wickerhamomyces anomalus, more than 100 µg/mL; in the assay on Candida albicans it was more than 100 µg/mL; against Yamadazyma nakazawae it was 100 µg/mL (≈ 132 µM); against Hanseniaspora uvarum, more than 100 µg/mL; in the assay on Debaryomyces hansenii, more than 100 µg/mL.
For `CC1CC[C@@]2(OC1)O[C@H]1C[C@H]3[C@@H]4CC[C@@H]5C[C@@H](O[C@@H]6O[C@H](CO)[C@@H](O)[C@H](O[C@@H]7OC[C@@H](O)[C@H](O)[C@H]7O)[C@H]6O[C@@H]6O[C@H](CO)[C@@H](O)[C@H](O)[C@H]6O)CC[C@]5(C)[C@H]4CC[C@]3(C)[C@H]1[C@@H]2C` (mixture of isomers), the minimum inhibitory concentration (MIC) with Saccharomyces cerevisiae is 6.25 µg/mL; in the assay on Wickerhamomyces anomalus it was 3.13 µg/mL; with Candida albicans, 50 µg/mL; with Yamadazyma nakazawae it was 3.13 µg/mL; in the assay on Hanseniaspora uvarum, more than 100 µg/mL; against Debaryomyces hansenii it was 6.25 µg/mL.
As to `CC1CC[C@@]2(OC1)O[C@H]1C[C@H]3[C@@H]4CC[C@@H]5C[C@@H](O[C@@H]6O[C@H](CO)[C@@H](O)[C@H](O[C@@H]7OC[C@@H](O)[C@H](O)[C@H]7O)[C@H]6O[C@@H]6O[C@H](CO)[C@@H](O)[C@H](O)[C@H]6O)CC[C@]5(C)[C@H]4CC(=O)[C@]3(C)[C@H]1[C@@H]2C` (mixture of isomers), the minimum inhibitory concentration (MIC) against Saccharomyces cerevisiae is 100 µg/mL; with Wickerhamomyces anomalus, 100 µg/mL; in the assay on Candida albicans it was more than 100 µg/mL; against Yamadazyma nakazawae, more than 100 µg/mL; against Hanseniaspora uvarum, more than 100 µg/mL; against Debaryomyces hansenii, more than 100 µg/mL.
In the case of `CC1CC[C@@]2(OC1)O[C@H]1C[C@H]3[C@@H]4CC[C@@H]5C[C@@H](O[C@@H]6O[C@H](CO)[C@H](O)[C@H](O[C@@H]7OC[C@@H](O)[C@H](O)[C@H]7O)[C@H]6O[C@@H]6O[C@H](CO)[C@@H](O)[C@H](O)[C@H]6O)CC[C@]5(C)[C@H]4CC[C@]3(C)[C@H]1[C@@H]2C` (mixture of isomers), the MIC against Saccharomyces cerevisiae is 25 µg/mL; against Wickerhamomyces anomalus, 3.13 µg/mL; against Candida albicans, more than 100 µg/mL; against Yamadazyma nakazawae, 12.5 µg/mL; in the assay with Hanseniaspora uvarum, more than 100 µg/mL; with Debaryomyces hansenii, 50 µg/mL.

The values above are taken from ChEMBL document CHEMBL1155690, “Antiyeast steroidal saponins from Yucca schidigera (Mohave yucca), a new anti-food-deteriorating agent” (2000).
